According to patent US20110098223A1, “USE OF THE PAT NANOPEPTIDE IN THE TREATMENT OF AUTOIMMUNE DISEASES” (priority 2008, published 2011):

System: Rats of OFA (SD) strain
Assay: Arthritis induced by Freund's adjuvant (Mycobacterium butyricum) in the rat
Type: in vivo
Description: We used the model of arthritis induced by Freund' adjuvant as described in the article of Milan et al., J Neurosci 1986; 6: 899-906. The rats are administered with Mycobacterium butyricum develop usually a severe polyarthritis which resembles to that in human. Rats of OFA (SD) strain (Oncins France Strain A) weighing approximately 200 g received an […] of a 10 mg/ml Mycobacterium butyricum solution at the articulation of the right ankle. For all the measured parameters, the rats were divided into 5 groups (8 rats/group) in the following way: • reference group: the rats received a paraffin injection instead of the solution of Mycobacterium butyricum (no induced arthritis) then receive an intraperitoneal injection of saline solution; • arthritic group+injection of saline solution; • arthritic group+intraperitoneal injection of 3 mg/kg indomethacin; the indomethacin being a NSAID classically used as reference in this kind of test; • arthritic group+intraperitoneal injection of […]; • arthritic group+intraperitoneal injection of […]. The products are administered 5 times per week during 3 weeks. At the beginning of the experimentation (day 0), one determines the initial values for the different parameters (volume of the leg, macroscopic clinical score, sedimentation test and hypersensitivity). During the experiment, several parameters are measured: • the volume of the leg (“paw latency duration”); • the globular sedimentation test (“Erythrocyte Sedimentation rate”); • the macroscopic score: • “0” means that no sign of arthritis was detected; • “1” means that a swelling or an inflammation was detected on a leg; • “2” means that a swelling or an inflammation was detected on two legs; • “3” means that a swelling or an inflammation was detected on at lest 3 legs; • “4” means that a swelling or an inflammation was detected on the 4 legs. • hypersensitivity according to the plantar test: carried out according to Yukinori Nagakura and al, Allodynia and hyperalgesia in adjuvant-induced arthritic rats: time course of progression and efficacy of analgesics, JPET 306: 490-497, 2003, or in Andersen M L and al “Evaluation of acute and chronic treatments with Harpagophytum procumbens one Freund's adjuvant-induced arthritis in rats”. J. Ethnopharmacol. 2004 April; 91 (2-3): 325-30; • the erythrocyte sedimentation rate (ESR): the increase in this one generally accompanies the clinical symptoms met in induced arthritis. The ESR is measured in the arthritic rats (at Day 21) 1 hour and 2 hours after the injection of PAT or indomethacin, according to the protocol of Mahajan S G, et al., Protective Effect of Ethanolic Extract of Seeds of Moringa will oleifera Lam. Against Inflammation Associated with Development of Arthritis in Rats. J. Immunotoxicol. 2007 January; 4 (1): 39-47.

`COc1ccc2c(c1)c(CC(=O)O)c(C)n2C(=O)c1ccc(Cl)cc1` [indomethacin] was tested, and the “hypersensitivity measured by the plantar test” value (Day 16, PAT at the 2 doses, indomethacin, equivalent to the non-arthritic reference group, FIG. 6) was “very reduced”, the “erythrocyte sedimentation rate (ESR)” value (arthritic rats, Day 21, FIG. 7) was “reduced in a very important way” and the clinical macroscopic score (compared to arthritic rats which received saline solution, until Day 21, FIG. 5) was “significant reduction”. The “volume of the leg” value (during the first 12 days, PAT 0.4 and 4 μg/kg i.p., indomethacin 3 mg/kg i.p., 5 times per week, FIG. 4) was “do not have a notable effect” and the “inflammation and volume of the leg” value (from Day 14 until Day 21, PAT 0.4 and 4 μg/kg i.p., indomethacin 3 mg/kg i.p., FIG. 4) was “notable reduction”.
